What was measured:
[1] = Peroxynitrite scavenging in vitro (Pyrogallol Red bleaching assay); format: biochemical; conditions: 10 μM peroxynitrite; negative control
Description: The ability of PPS microspheres to scavenge peroxynitrite was tested in vitro using a Pyrogallol Red (PGR) bleaching assay. Treatment groups consisting of PBS, blank PPS microspheres (0.5-1.5 mg/mL), tempo-PPS microspheres (0.5 mg/mL), tempol (0.2 mg/mL, hydrophilic analog of tempo-benzoate), and ascorbic acid (negative control, pH adjusted to 7.4) were prepared in a 48-well plate with 500 μL volume per well. A PGR stock solution was prepared in PBS ([…]) and 10 μL was added to each well. Peroxynitrite stock solution was thawed on ice and diluted to a concentration of 1 mM in 0.3 M NaOH. After baseline absorbance of the dye was measured in a plate reader at 540 nm, 5 μL of peroxynitrite was added to each well (final concentration of 10 μM) and absorbance measurements were collected for one hour.

[2] = Superoxide scavenging in vitro (DHE fluorescence, xanthine/xanthine oxidase); format: biochemical; conditions: 55 μg/mL, one-way ANOVA p<0.0001
Description: In vitro superoxide scavenging activity of the tempo-PPS microspheres was evaluated using a dihydroethidium (DHE) fluorescence assay. DHE has been widely used to detect superoxide, which reacts with DHE to form a specific fluorescent product, 2-OH-ethidium (2OH-E). The effects of PPS and tempo-benzoate on superoxide were determined using a superoxide-generating, cell-free enzymatic system containing 0.046 U/ml xanthine oxidase and 0.2 mM xanthine. Xanthine was prepared in PBS−/− as a stock solution (1.21 mg/mL), and the appropriate volume of xanthine stock solution was added to the xanthine oxidase solution to reach the required final concentration. The xanthine/xanthine oxidase solution (100 μL) was added to wells in a black-walled, 96-well plate containing the following treatments: PBS, blank PPS microspheres (55 μg/mL), free tempo-benzoate (dissolved in acetonitrile then diluted to 5% acetonitrile, 55 μg/mL tempo-benzoate), and tempo-PPS microspheres (55 μg/mL microsphere concentration). Each well contained 10 μL of a treatment. […] After 10 minutes, 100 μL of the DHE solution was added to each well (10 uM final DHE concentration) and the fluorescence intensity was measured in a plate reader (Tecan Group Ltd., Mannedorf, Switzerland) over a time frame of 1 hour with an excitation of 405 nm and an emission of 570 nm. […]

[3] = Pilot studies with free curcumin in vitro; format: physicochemical
[4] = test system: ROS levels in ischemic tissue; experiment: Pilot studies with free curcumin in ischemic tissue; format: in vivo
[5] = Hydrogen peroxide scavenging in vitro (Amplex Red, xanthine/xanthine oxidase); format: biochemical; conditions: 1 hour of incubation, one-way ANOVA p<0.001
Description: H2O2-scavenging activity of the PPS microspheres was verified in vitro using an Amplex Red Hydrogen Peroxide/Peroxidase Assay kit according to the manufacturer's instructions. Xanthine and xanthine oxidase were used at the same concentrations as described in the DHE assay to generate a reaction solution containing both superoxide and hydrogen peroxide. The reaction solution was added to wells in a black-walled, 96-well plate containing either PBS, blank PPS microspheres (final concentrations of 60 μg/mL and 7 μg/mL), or free tempo-benzoate (final concentrations of 0.5 mg/mL and 60 μg/mL). The Amplex Red working solution was freshly prepared as described in the kit instructions using the included Amplex Red, horseradish peroxidase, and 1× reaction buffer. The working solution was then added to the wells and fluorescence was measured in a plate reader at 1 hour with an excitation of 530 nm and an emission of 590 nm.

[6] = test system: mouse hind limb ischemia model; experiment: Speckle variance OCT of vascular morphology in adductor and gastrocnemius regions (Example 2); format: in vivo, FVB mice; conditions: gastrocnemius muscle, day 3, vs saline
From the text: Briefly, the femoral artery and vein of the right hind limb were ligated with 6-0 sutures proximal to the origins of the superficial epigastric artery and deep branch of the femoral artery, and proximal to the vessels the branch from the femoral artery near the knee. Major side branches were also ligated with 6-0 sutures before the ligated segment of the femoral artery and vein was excised. The incision was closed with interrupted 5-0 nylon sutures. In therapeutic experiments, treatments were injected intramuscularly in the ischemic limb following closure of the skin incision. […]
At 0, 3, 7, 14, 21, and 28 days post-surgery, the hind limb vasculature in the adductor and gastrocnemius muscle regions was imaged using a swept-source optical coherence tomography (OCT) system as described previously (26, 39). […] Speckle variance OCT volumes were acquired non-invasively through the skin in 4 mm×4 mm areas covering the two muscle regions, and average intensity projections in depth were used to visualize all vessels detected within the imaged volume. After image processing was performed to enhance contrast and enable vessel segmentation (39, 40), morphological parameters including vessel area density (total area filled by vessels/total area of imaged region) and vessel length fraction (total vessel length/total area of imaged region) were quantified.

MMP-13 = MMP-13 expression from PCR with TNF-α; format: cell-based, porcine; conditions: TNF-α alone
From the text: (§1) TPCA-PPS microspheres were made as shown above. Chondrocytes were obtained from porcine cadavers prepared by the University of Tennessee Heath Science Center. MMPSense750 and XenoFluor 680 was obtained from PerkinElmer. Monoclonal antibodies to type II collagen were produced in our lab. C57BL/6 male mice were obtained from Jackson Laboratory (Maine, USA) and was acclimated in a housing facility before experimentation. A custom fit ElectroForce® 3200 (Bose Corp., Minnesota, USA) biomaterials test instrument was used for mechanical loading. The mechanical loading apparatus was custom made to fit the proximal tibia in the upper cup and dorsiflexed ankle in the bottom cup.

type II collagen = experiment: IVIS imaging of MabCII fluorescence after knee mechanical overload; format: in vivo, C57BL/6 mice; conditions: knee injection, loading cycles; vs PBS; p=0.0181 for microspheres
Description: (§2) For the study, C57BL/6 mice knees were injected with TPCA-1-PPS microspheres, TPCA-1 in its soluble form, or a PBS saline control. The mice were then given loading cycles to induce damage to the knee via the Poulet model of knee overload. At the completion of the loading cycles, the mice were given fluorescent indicators and evaluated using IVIS (in vivo imaging system) for type II collagen (and indicator of cartilage damage), and MMP activity (implicated in the progression of OA). […] This difference was not seen in the mice given the soluble form of TPCA-1 however.
as §1

MMP-13 activity = experiment: IVIS imaging of MMPSense fluorescence after knee mechanical overload; format: in vivo, C57BL/6 mice; conditions: knee injection, loading cycles; vs PBS; p=0.0184 for microspheres
Description: as §2, §1

O=C1O[C@H]([C@@H](O)CO)C(O)=C1O [Ascorbic acid, ascorbic acid]
relative bleaching [1]: 2%

SOD: bovine SOD (20 U/ml) used as a negative control treatment
fluorescent signal from the DHE oxidation product compared to no treatment [2]: further inhibited

COc1cc(/C=C/C(=O)CC(=O)/C=C/c2ccc(O)c(OC)c2)ccc1O [free curcumin, Curcumin]
behaviour of free curcumin in vitro [3]: formed crystals in vitro | ROS levels in ischemic tissue [4]: exacerbated ROS levels in ischemic tissue

CC1(C)CC(OC(=O)c2ccccc2)CC(C)(C)N1[O] [free tempo-benzoate, 4-hydroxy-TEMPO benzoate]
fluorescent signal from the DHE oxidation product compared to no treatment [2]: significantly reduce fluorescence | Amplex Red fluorescence [5]: significantly increases the fluorescent signal | vessel area density ([6]; p<0.01): saline-treated mice have significantly lower vessel area density | vessel length fraction ([6]; p<0.05): significantly lower in the saline group

TNF-α
increase in MMP-13 expression (MMP-13): ~20 fold

NC(=O)Nc1sc(-c2ccc(F)cc2)cc1C(N)=O [TPCA-1 in solution, TPCA-1]
MabCII fluorescence (exposed type II collagen) (type II collagen): not a significant reduction in fluorescence | MMPSense fluorescence (MMP-13 activity) (MMP-13 activity): not a significant reduction in fluorescence

Source: patent US10695288B2, “Reactive oxygen species (ROS)-responsive compositions and methods thereof” (VANDERBILT UNIVERSITY, priority 2014, dated 2020)
